# In US20240325312A1, “Composition comprising cannabidiol and hydroxychloroquine in a fixed dose combination capsule” (priority 2021, published 2024):
# Columns and labels:
# [1] = system: human peripheral blood mononuclear cells (PBMCs); experiment: LPS-stimulated cytokine release from human PBMCs, checkerboard, Luminex; type: cell-based
# Method: The anti-inflammatory activity the combination of CBD and hydroxychloroquine was assessed by determining cytokine release from human peripheral blood mononuclear cells (PBMCs) stimulated with bacterial lipopolysaccharide (LPS) using a Luminex based assay. A 96-well microtitre plate-based checkerboard assay with seven concentrations (including the no drug control) of CBD and hydroxychloroquine were assessed in combination was used to determine the drug-drug interaction. Briefly, frozen PMBCs from two independent donors were thawed, diluted in culture medium, seeded into 96-well microtitre plates and incubated at 37° C., 5% CO2 for 1 hour prior to the addition of test compounds. After the addition of the test compounds the cells were returned to the incubator for 1 hour, after which LPS was added to the wells. Plates were incubated at 37° C., 5% CO2 for 24 hours. After 24 hours, cell culture supernatants were removed and analysed for cytokine levels using Luminex methodology according to manufacturers' instructions. All values had the vehicle background subtracted prior to further analysis. Three plates were set up in parallel using the PBMCs from the same donor. Inhibition of cytokine release was determined relative to the no treatment control (i.e., that was stimulated with LPS) and averaged across the three replicates. A cytotoxicity assay using AlmarBlue with the identical plate set up was performed in parallel.
# (§1) Drug synergy was determined using the Bliss Independence method where the predicted effect of the drug combination is calculated using the equation: […]
# BALB/c mice = experiment: TNBS-induced colitis; type: in vivo; details: H&E
# From the text: Male BALB/c were used as an in vivo model of colitis, induced by intracolonic administration of 2,4,6-trinitrobenzene sulfonic acid (TNBS) in 50% ethanol, as previously described by Antoniou et al. (2016, Annals of Medicine and Surgery, 11: 9-15). Briefly, the ethanol disrupts the intestinal barrier, permitting TNBS to interact with colon proteins. Interaction of TNBS with high-molecular weight proteins renders them immunogenic, leading to Th1 mediated inflammation, which is causative of symptoms include inconsistent stool formation and blood in the faeces. […]
# Other endpoint measures of stool consistency score (i.e., 0—normal stools, 1, soft but still formed stools, 2—very soft stools, 3—diarrhoea), faecal occult blood score (i.e., 0—negative hemoccult, 1—positive hemoccult, 2—blood traces in stool visible, 3—rectal bleeding), colon weight, colon macroscopic damage score (a composite of adhesions, strictures, ulcers/inflammations and wall thickness) and myeloperoxidase levels in the colon tissue were also assessed. The data from each of these endpoints was baseline subtracted using the equivalent measures from sham treated mice (i.e., no TNBS) and reduction in any measure calculated as a relative reduction. Synergy was calculated using the statistical methods described elsewhere herein.
# Lewis rats [2] = experiment: Collagen-induced arthritis; type: in vivo; parameters: key to Relative reduction in pannus score / Relative reduction in total histology score / Reduction in pannus score / Reduction in total histology score / Reduction in IL-1B / Reduction in IL-6 / Reduction in clinical score: fractional reduction vs vehicle control, sham baseline subtracted
# Method: Female Lewis rats were challenged with porcine type-II collagen with Freund's adjuvant on Day 1 (0.2 mg/0.2 mL/rat) by subcutaneous injection at the base of the tail to induce arthritis. A booster injection at 0.1 mg/0.1 mL/rat) was administered on Day 7. On Day 16, rats were allocated into groups of six based on hind paw volume, with animals allocated into groups to provide a similar distribution of hind paw volumes.
# Vehicle and active agents (i.e., CBD and hydroxychloroquine) alone or in combination were administered intraperitoneally (IP) once a day starting from Day 17 to Day 30, i.e., for a total of 14 consecutive days.
# Disease was assessed by measuring hind paw volume with plethysmometer and using a qualitative severity score system as outlined in Table 16 on Day 1, 7, 10, 14, 16, 18, 20, 22, 24, 26, 28 and 30.
# Post-termination on Day 30, blood was collected from all rats and analysed for levels of the inflammatory cytokines […], IL-6 and TNF-α by ELISA. Both hind paws were harvested, weighed and formalin-fixed for histopathology. Tissue was assessed to evaluate cartilage and bone destruction by pannus formation and mononuclear cell infiltration in synovial tissues according to the scoring matrices set out in Tables 17 and 18. A total histology score, being the sum of the pannus formation and mononuclear cell infiltration score, was also calculated.
# For synergy analysis, data were baseline subtracted using sham treated […] (i.e., no collagen injection), before normalizing the values relative to vehicle control. Synergy was calculated using the statistical methods described elsewhere herein.
# Lewis rats [3] = experiment: Collagen-induced arthritis; type: in vivo; details: Day 30
# C57BL/6 mice = experiment: Lipopolysaccharide (LPS)-induced sepsis, serum cytokines; type: in vivo
# Method: Male C57BL/6 mice weighing 10-20 g were used. Vehicle and active agents (i.e., CBD and hydroxychloroquine) alone or in combination were administered intraperitoneally (IP) or orally at 1 hour before LPS (100 μg/100 μL/mouse) injected intravenously (IV). At 2 hours after LPS injection, blood was collected from all mice by cardiac puncture, sera processed and assayed for biomarkers using either the Th17-plex for IL-1β, IL-2, IL-10, IL-12 (p70), IFN-γ and TNF-α by Luminex, plus IL-6 and D-dimer by ELISA, or the 23-plex for IL-1α, IL-1β, IL-2, IL-3, IL-4, IL-5, IL-6, IL-9, IL-10, IL-12(p40), IL-12(p70), IL-13, IL-17A, Eotaxin, G-CSF, GM-CSF, IFN-γ, KC, MCP-1(MCAF), MIP-1α, […], RANTES, and TNF-α by Luminex, plus IL-6 by ELISA. ANOVA followed by Dunnett's test was applied for comparison between vehicle and treatment groups. p<0.05 is considered significant.
# For synergy analysis, data were baseline subtracted using the cytokine levels of sham treated mice (i.e., no LPS injection), before normalizing the values for each cytokine relative to maximum values across the groups. The normalized values were used to calculate the relative inhibition where a value of 1 represents complete inhibition and a value of 0 represents no inhibition. Synergy was calculated using the statistical methods described elsewhere herein.
# as §1
smiles,measurement,setting,value
"CCN(CCO)CCCC(C)Nc1ccnc2cc(Cl)ccc12 (stereo not drawn) [HCQ, 2-[[4-[(7-chloro-4-quinolinyl)amino]pentyl]-thylamino]ethanol]","FIE, IL-1α release","[1]; Donor 1, HCQ 0.63 μg/mL",0.03
same,"FIE, IL-1β release","[1]; Donor 1, HCQ 0.63 μg/mL",0.08
same,"FIE, IL-6 release","[1]; Donor 1, HCQ 0.63 μg/mL",0.12
same,"FIE, TNF-α release","[1]; Donor 1, HCQ 0.63 μg/mL",0.00
same,"FIE, IL-1α release","[1]; Donor 1, HCQ 1.25 μg/mL",0.01
same,"FIE, IL-1β release","[1]; Donor 1, HCQ 1.25 μg/mL",0.07
same,"FIE, IL-6 release","[1]; Donor 1, HCQ 1.25 μg/mL",0.00
same,"FIE, TNF-α release","[1]; Donor 1, HCQ 1.25 μg/mL",0.08
same,"FIE, IL-1α release","[1]; Donor 1, HCQ 2.50 μg/mL",0.12
same,"FIE, IL-1β release","[1]; Donor 1, HCQ 2.50 μg/mL",0.08
same,"FIE, IL-6 release","[1]; Donor 1, HCQ 2.50 μg/mL",0.10
same,"FIE, MIP-1α release","[1]; Donor 1, HCQ 2.50 μg/mL",0.00
same,"FIE, TNF-α release","[1]; Donor 1, HCQ 2.50 μg/mL",0.05
same,"FIE, IL-1α release","[1]; Donor 1, HCQ 5.00 μg/mL",0.24
same,"FIE, IL-1β release","[1]; Donor 1, HCQ 5.00 μg/mL",0.17
same,"FIE, IL-6 release","[1]; Donor 1, HCQ 5.00 μg/mL",0.08
same,"FIE, TNF-α release","[1]; Donor 1, HCQ 5.00 μg/mL",0.02
same,"FIE, IL-1α release","[1]; Donor 1, HCQ 10.00 μg/mL",0.50
same,"FIE, IL-1β release","[1]; Donor 1, HCQ 10.00 μg/mL",0.68
same,"FIE, IL-6 release","[1]; Donor 1, HCQ 10.00 μg/mL",0.00
same,"FIE, TNF-α release","[1]; Donor 1, HCQ 10.00 μg/mL",0.04
same,"FIE, IL-1α release","[1]; Donor 1, HCQ 20.00 μg/mL",0.54
same,"FIE, IL-1β release","[1]; Donor 1, HCQ 20.00 μg/mL",0.81
same,"FIE, IL-6 release","[1]; Donor 1, HCQ 20.00 μg/mL",0.12
same,"FIE, MIP-1α release","[1]; Donor 1, HCQ 20.00 μg/mL",0.00
same,"FIE, TNF-α release","[1]; Donor 1, HCQ 20.00 μg/mL",0.30
same,"FIE, IL-1α release","[1]; Donor 2, HCQ 0.63 μg/mL",0.07
same,"FIE, IL-1β release","[1]; Donor 2, HCQ 0.63 μg/mL",0.06
same,"FIE, IL-1α release","[1]; Donor 2, HCQ 1.25 μg/mL",0.11
same,"FIE, IL-1α release","[1]; Donor 2, HCQ 2.50 μg/mL",0.19
same,"FIE, IL-1β release","[1]; Donor 2, HCQ 2.50 μg/mL",0.07
same,"FIE, IL-1α release","[1]; Donor 2, HCQ 5.00 μg/mL",0.49
same,"FIE, TNF-α release","[1]; Donor 2, HCQ 5.00 μg/mL",0.02
same,"FIE, IL-1α release","[1]; Donor 2, HCQ 10.00 μg/mL",0.68
same,"FIE, IL-6 release","[1]; Donor 2, HCQ 10.00 μg/mL",0.11
same,"FIE, MIP-1α release","[1]; Donor 2, HCQ 10.00 μg/mL",0.00
same,"FIE, TNF-α release","[1]; Donor 2, HCQ 10.00 μg/mL",0.18
same,"FIE, IL-1α release","[1]; Donor 2, HCQ 20.00 μg/mL",0.63
same,"FIE, IL-6 release","[1]; Donor 2, HCQ 20.00 μg/mL",0.47
same,"FIE, MIP-1α release","[1]; Donor 2, HCQ 20.00 μg/mL",0.00
same,Colon tissue histology finding (FIG. 4),BALB/c mice; hydroxychloroquine (2.5 mg/kg),"regions of mild abnormality, cyctic dilation and aberrant crypts"
same,Reduction in clinical score,"Lewis rats [2]; Day 24, HCQ 25 mg/kg",0.21
same,Reduction in paw volume,"Lewis rats [2]; Day 24, HCQ 25 mg/kg",0.10
same,Relative reduction in pannus score,"Lewis rats [2]; Day 30, HCQ 2.5 mg/kg",0.07
same,Relative reduction in serum IL-6 level,"Lewis rats [2]; Day 30, HCQ 2.5 mg/kg",0.51
same,Relative reduction in total histology score,"Lewis rats [2]; Day 30, HCQ 2.5 mg/kg",0.15
same,Reduction in clinical score,"Lewis rats [2]; Day 30, HCQ 25 mg/kg",0.26
same,Reduction in paw volume,"Lewis rats [2]; Day 30, HCQ 25 mg/kg",0.20
same,Reduction in mononuclear cell infiltration,Lewis rats [2]; HCQ 25 mg/kg,0.24
same,Reduction in pannus score,Lewis rats [2]; HCQ 25 mg/kg,0.28
same,Reduction in total histology score,Lewis rats [2]; HCQ 25 mg/kg,0.26
same,Reduction in IL-1B,"Lewis rats [2]; serum, HCQ 25 mg/kg",0.25
same,Reduction in IL-6,"Lewis rats [2]; serum, HCQ 25 mg/kg",0.36
same,Relative reduction in serum IL-1β level,Lewis rats [3]; HCQ 2.5 mg/kg,0.37
"C=C(C)[C@@H]1CCC(C)=C[C@H]1c1c(O)cc(CCCCC)cc1O [CBD, cannabidiol]","FIE, IL-1α release","[1]; Donor 1, CBD 5.00 μg/mL",0.40
same,"FIE, IL-1β release","[1]; Donor 1, CBD 5.00 μg/mL",0.38
same,"FIE, IL-6 release","[1]; Donor 1, CBD 5.00 μg/mL",0.08
same,"FIE, MIP-1α release","[1]; Donor 1, CBD 5.00 μg/mL",0.12
same,"FIE, TNF-α release","[1]; Donor 1, CBD 5.00 μg/mL",0.05
same,"FIE, IL-1α release","[1]; Donor 2, CBD 5.00 μg/mL",0.28
same,"FIE, IL-1β release","[1]; Donor 2, CBD 5.00 μg/mL",0.13
same,"FIE, IL-6 release","[1]; Donor 2, CBD 5.00 μg/mL",0.09
same,"FIE, MIP-1α release","[1]; Donor 2, CBD 5.00 μg/mL",0.00
same,"FIE, TNF-α release","[1]; Donor 2, CBD 5.00 μg/mL",0.07
same,Relative inhibition of IFN-γ release,C57BL/6 mice; CBD 10 mg/kg,0.00
same,Relative inhibition of IL-1β release,C57BL/6 mice; CBD 10 mg/kg,0.34
same,Relative inhibition of IL-6 release,C57BL/6 mice; CBD 10 mg/kg,0.14
same,Relative inhibition of IL-12(p70) release,C57BL/6 mice; CBD 10 mg/kg,0.00
same,Relative inhibition of TNF-α release,C57BL/6 mice; CBD 10 mg/kg,0.00
same,Relative inhibition of IL-6 release,C57BL/6 mice; CBD 25 mg/kg,0.03
same,Colon tissue histology finding (FIG. 4),BALB/c mice; CBD (1 mg/kg),regions of inflammatory cell infiltration in submucosal edema
same,Relative reduction in pannus score,"Lewis rats [2]; Day 30, CBD 1 mg/kg",0.07
same,Relative reduction in serum IL-6 level,"Lewis rats [2]; Day 30, CBD 1 mg/kg",0.50
same,Relative reduction in total histology score,"Lewis rats [2]; Day 30, CBD 1 mg/kg",0.11
same,Relative reduction in serum IL-1β level,Lewis rats [3]; CBD 1 mg/kg,0.31
